Assay results as given in patent publication US6391882B1, “4,5,6 and 7-indole and indoline derivatitives, their preparation and use” (H. Lundbeck A/S, priority 1998, dated 2002).
Read-outs that look alike come from different tables or passages of the source.

How the values were obtained:
[1] = target: T1, cloned human 5-HT1A receptors (Homo sapiens, UniProt P08908); experiment: Inhibition of 3H-5-CT binding to human 5-HT1A receptors; conditions: cloned human 5-HT1A receptors in transfected HeLa cells (HA7), 15 minutes at 37° C., pH 7.7
T1 construct: expressed in transfected cells; host or cells: HeLa cells (HA7)
T1 sequence (P08908 1-422): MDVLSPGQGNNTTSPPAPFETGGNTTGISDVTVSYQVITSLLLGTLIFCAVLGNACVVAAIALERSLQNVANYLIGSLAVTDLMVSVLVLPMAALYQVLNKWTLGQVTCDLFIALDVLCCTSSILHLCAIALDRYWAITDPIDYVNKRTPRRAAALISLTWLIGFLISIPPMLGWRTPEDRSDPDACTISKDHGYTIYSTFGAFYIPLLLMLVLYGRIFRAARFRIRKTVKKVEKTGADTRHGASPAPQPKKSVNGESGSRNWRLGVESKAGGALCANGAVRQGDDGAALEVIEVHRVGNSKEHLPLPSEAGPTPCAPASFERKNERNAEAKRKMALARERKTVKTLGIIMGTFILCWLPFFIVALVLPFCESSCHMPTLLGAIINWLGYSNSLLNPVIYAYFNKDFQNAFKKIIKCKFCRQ
Experimental: The affinity of the compounds of the invention to 5-HT1A receptors was determined by measuring the inhibition of binding of a radioactive ligand at 5-HT1A receptors as described in the following test:
Inhibition of ^3H-5-CT Binding to Human 5HT1A Receptors
By this method the inhibition by drugs of the binding of the 5-HT1A agonist ^3H-5-carboxamido tryptamine (^3H-5-CT) to cloned human 5-HT1A receptors stably expressed in transfected HeLa cells (HA7) (Fargin, A. et al, J. Biol. Chem., 1989, 264, 14848) is determined in vitro. The assay was performed as a modification of the method described by Harrington, M. A. et al, J. Pharmacol. Exp. Ther., 1994, 268, 1098. Human 5-HT1A receptors (40 μg of cell homogenate) were incubated for 15 minutes at 37° C. in 50 mM Tris buffer at pH 7.7 in the presence of ^3H-5-CT. Non-specific binding was determined by including 10 μM of metergoline. The reaction was terminated by rapid filtration through Unifilter GF/B filters on a Tomtec Cell Harvester. Filters were counted in a Packard Top Counter.

[2] = target: T2, Serotonin reuptake (whole rat brain synaptosomes) (Rattus norvegicus, UniProt P31652); experiment: Inhibition of 3H-5-HT uptake into rat brain synaptosomes; assay type: biochemical
T2 construct: from tissue; host or cells: whole rat brain synaptosomes
Experimental: Inhibition of ^3H-5-HT Uptake Into Rat Brain Synaptosomes
Using this method the ability of drugs to inhibit the accumulation of ^3H-5-HT into whole rat brain synaptosomes is determined in vitro.

[3] = 3H-5-HT accumulation into whole rat brain synaptosomes, in vitro, read-out: Inhibition of Serotonin reuptake IC50

T2 sequence (P31652 whole entry): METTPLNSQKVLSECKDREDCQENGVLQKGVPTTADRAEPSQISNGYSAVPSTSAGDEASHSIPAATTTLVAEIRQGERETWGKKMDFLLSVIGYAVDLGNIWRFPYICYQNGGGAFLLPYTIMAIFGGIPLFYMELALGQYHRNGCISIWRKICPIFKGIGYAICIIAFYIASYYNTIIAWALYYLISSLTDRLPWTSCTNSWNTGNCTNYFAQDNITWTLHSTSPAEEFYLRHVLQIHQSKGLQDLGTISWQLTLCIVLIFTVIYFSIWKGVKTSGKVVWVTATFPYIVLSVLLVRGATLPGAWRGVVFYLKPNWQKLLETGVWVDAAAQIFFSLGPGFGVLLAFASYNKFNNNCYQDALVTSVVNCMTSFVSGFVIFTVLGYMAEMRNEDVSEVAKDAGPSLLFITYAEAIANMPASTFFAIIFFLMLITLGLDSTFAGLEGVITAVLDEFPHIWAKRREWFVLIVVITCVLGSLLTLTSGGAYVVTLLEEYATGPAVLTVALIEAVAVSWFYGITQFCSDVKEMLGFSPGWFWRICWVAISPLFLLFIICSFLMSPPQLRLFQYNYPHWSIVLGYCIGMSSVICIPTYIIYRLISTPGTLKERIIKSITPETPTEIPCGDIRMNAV

IC50 [2, 3] [nM] | SMILES | IC50 [1] [nM] | melting point [°C] | IC50 [2] [nM]
– | OCc1cc(N2CCN(CCc3c[nH]c4cc(Cl)ccc34)CC2)c2cc[nH]c2c1 [Compound 3b, 1-(2-(6-Chloro-1H-indol-3-yl)ethyl)-4-(6-hydroxymethyl-1H-indol-4-yl)piperazine] | 120 | 194 to 196 | 33
– | OCc1cc(N2CCN(CCc3c[nH]c4ccc(Br)cc34)CC2)c2cc[nH]c2c1 [Compound 3c, 1-(2-(5-Bromo-1H-indol-3-yl)ethyl)-4-(6-hydroxymethyl-1H-indol-4-yl)piperazine] | 1000 | 163 to 165 | 46
– | COC(=O)c1cc(N2CCN(CCc3c[nH]c4ccccc34)CC2)c2cc[nH]c2c1 [Compound 4f, 1-(2-(1H-indol-3-yl)ethyl)-4-(6-methoxycarbonyl-1H-indol-4-yl)piperazine] | 1200 | – | 14
– | COC(=O)c1cc(N2CCN(CCc3c[nH]c4cc(Cl)ccc34)CC2)c2cc[nH]c2c1 [Compound 4g, 1-(2-(6-Chloro-1H-indol-3-yl)ethyl)-4-(6-methoxycarbonyl-1-H-indol-4-yl)piperazine] | 350 | – | 23
71 | COC(=O)c1cc(N2CCN(CCc3coc4ccc(F)cc34)CC2)c2cc[nH]c2c1 [Compound 4h, 1-(2-(5-Fluoro-3-benzofuranyl)ethyl)-4-(6-methoxycarbonyl-1H-indol-4-yl)piperazine] | 3100 | – | –
950 | Fc1ccc2occ(CN3CCN(c4cccc5[nH]ccc45)CC3)c2c1 [Compound 4l, 1-(5-Fluoro-3-benzofuranylmethyl)-4-(1H-indol-4-4-yl)piperazine] | 330 | – | –
– | N#Cc1c[nH]c2cccc(N3CCN(CCc4c[nH]c5ccccc45)CC3)c12 [Compound 4m, 1-(3-Cyano-1H-indol-4-yl)-4-(2-(1H-indol-3-yl)ethyl)piperazine] | 3.2 | – | 3
65 | N#Cc1c[nH]c2cccc(N3CCN(CCc4coc5ccc(F)cc45)CC3)c12 [Compound 4n, 1-(3-Cyano-1H-indol-4-yl)-4-(2-(5-fluoro-3-benzofuranyl)ethyl)piperazine] | 5.7 | – | –
– | N#Cc1c[nH]c2cccc(N3CCN(CCc4c[nH]c5cc(Cl)ccc45)CC3)c12 [Compound 4o, 1-(2-(6-Chloro-1H-indol-3-yl)ethyl)-4-(3-cyano-1H-indol-4-yl)piperazine] | 2.9 | – | 19
22 | N#Cc1c[nH]c2cccc(N3CCN(CCc4coc5ccccc45)CC3)c12 [Compound 4p, 1-(2-(3-Benzofuranyl)ethyl)-4-(3-cyano-1H-indol-4-yl)piperazine] | 4.3 | – | –
– | Cc1ccc2occ(CCN3CCN(c4cccc5[nH]ccc45)CC3)c2c1 [Compound 4q, 1-(1H-Indol-4-yl)-4-(2-(5-methyl-3-benzofuranyl)ethyl)piperazine] | 21 | – | 34
– | Cc1cccc2occ(CCN3CCN(c4cccc5[nH]ccc45)CC3)c12 [Compound 4r, 1-(1H-Indol-4-yl)-4-(2-(4-methyl-3-benzofuranyl)ethyl)piperazine] | 10 | – | 12
– | Fc1ccc2occ(CCCN3CC=C(c4cccc5[nH]ccc45)CC3)c2c1 [Compound 4s, 1-(3-(5-Fluoro-3-benzofuranyl)-1-propyl)-4-(1H-indol-4-yl)-1,2,3,6-tetrahydropyridine] | 16 | – | 24
– | Clc1ccc2occ(CCN3CCN(c4cccc5[nH]ccc45)CC3)c2c1 [Compound 4t, 1-(2-(5-Chloro-3-benzofuranyl)ethyl)-4-(1H-indol-4-yl)piperazine] | 9.4 | – | 99
– | Cc1ccc2c(CCN3CCN(c4cccc5[nH]ccc45)CC3)coc2c1 [Compound 4u, 1-(1H-Indol-4-yl)-4-(2-(6-methyl-3-benzofuranyl)ethyl)piperazine] | 7 | – | 93
– | Clc1cccc2c(CCN3CCN(c4cccc5[nH]ccc45)CC3)coc12 [Compound 4v, 1-(2-(7-Chloro-3-benzofuranyl)ethyl)-4-(1H-indol-4-yl)piperazine] | 4.3 | – | 4.4
– | Clc1ccc2c(CCN3CCC(c4cccc5[nH]ccc45)CC3)c[nH]c2c1 [Compound 5a] | 14 | – | 19
